According to US20250115595A1, “INHIBITORS OF HYPOXIA-INDUCIBLE FACTORS” (The Johns Hopkins University, priority 2021, published 2025):
pIC50: −log10 of the molar value. “Also recorded” adds a separate entry of the source.

Tests used:
[1] = tested on: HIF transcriptional activity; experiment: Luciferase reporter assay (FLuc/RLuc) in hypoxic Hep3B-c1 cells; format: cell-based; conditions: Homo sapiens, FLuc/RLuc ratio, 1% O2, 24 hours
Experimental: The NCI CellMiner database contains expression data on 25,698 mRNAs in 60 human cancer cell lines that were exposed to 21,770 chemical compounds (Reinhold W C, et. al., Cancer Res. 2012; 72(14):3499-3511). The CellMiner database was interrogated for compounds that induced changes in gene expression highly correlated with those induced by acriflavine, but would be structurally unrelated to acriflavine. Compounds that satisfied these criteria were analyzed in Hep3B-c1 cells (Zhang H. et. al., Proc Natl Acad Sci USA. 2008; 105(50):19579-19586), which are stably transfected with: HIF dependent reporter plasmid p2.1, in which firefly luciferase (FLuc) coding sequences are located downstream from a hypoxia response element (HRE) and a basal SV40 promoter; and control reporter pSVR, in which Renilla luciferase (RLuc) coding sequences are downstream of the basal SV40 promoter only (FIG. 1A).
Hep3B-c1 cells (Zhang 2008), which are stably co-transfected with reporter plasmids p2.1, a hypoxia-inducible firefly luciferase reporter gene containing a hypoxia response element (HRE), and pSVR, a constitutively expressed Renilla luciferase reporter gene, were seeded on 24-well plates. Cells were treated with compounds the following day and exposed to 20% or 1% O2 for 24 hours. For transient transfection, cells were seeded, transfected with the listed plasmids and compounds, and exposed to 20% or 1% O2 for 24 hours. FLuc/RLuc ratios were determined using the Dual Luciferase Reporter Assay System (Promega) and the VICTOR Nivo plate reader (PerkinElmer).

[2] = tested on: HIF-regulated angiogenic genes; experiment: mRNA expression in hypoxic HUVECs; format: cell-based, human; conditions: 1 or 10 μM, 4 hours
From the text: Vascular endothelial cells also secrete angiogenic mediators that contribute to the progression of diabetic eye disease (Y. Qin et al., Sci Adv 8, eabm1896 (2022)). Exposure of human umbilical vein endothelial cells (HUVECs) to hypoxia induced HIF-1α and HIF-2α protein accumulation, which was inhibited by 32-134D (FIG. 30). […] Of note, ANGPT2 and VE-PTP, two emerging targets for the treatment of diabetic eye disease, are both expressed specifically by vascular cells (G. Fachinger, et al., Oncogene 18, 5948-5953 (1999); P. C. Maisonpierre et al., Science 277, 55-60 (1997)).
Reverse transcription and quantitative real-time PCR: Total RNA was isolated from cultured cells or retinas with PureLink™ RNA Mini Kit (Invitrogen #12183025), and cDNA was prepared with MuLV Reverse Transcriptase (Applied Biosystems). Quantitative real-time PCR was performed with Power SYBR Green PCR Master Mix (Applied Biosystems) and MyiQ Real-Time PCR Detection System (Bio-Rad). Normalization was done using cyclophilin A for mouse tissue and human cell lines.

[3] = tested on: STZ mice; experiment: STZ diabetic mouse model, intraocular dosing; format: in vivo; conditions: single intraocular injection 70 ng, 5 days
Experimental: The efficacy of 32-134D following intraocular administration with 70 ng, as well as a lower dose (14 ng), in OIR mice at P12 (J. Zhang et al., J Clin Invest 131 (2021)) was determined.
The efficacy of 32-134D following IVT administration was also evaluated in the STZ model. STZ mice that were hyperglycemic for 6 months were treated with a single intraocular injection with 70 ng 32-134D in 1 ul or with vehicle (DMSO) control. 5 days later vascular hyperpermeability was assessed by examining leakage of intravascular Evans blue dye in STZ mice.
Vascular permeability by Evans blue tracer method: Mice were anesthetized with a mixture of ketamine (50 mg/kg) and xylazine (5 mg/kg) and subjected to Evans blue (Sigma) (50 mg/kg) perfusion by penile vein injection. […] Images were captured by Zeiss fluorescent microscope or confocal microscopy and fluorescence quantified by image J software (NIH). […] Blinded quantification of the number of leaking vessels was performed by manual counting major leakage from capillaries from retinas of each group. Non-capillary artifactual Evans blue or FITC-dextran leakage due to flat mount processing as well as minor leakages were not included in the quantitation. […] Random fields were chosen from retinas where leakages were absent to determine baseline fluorescence that arise from capillaries. For quantification, high magnifications (20×) images were taken. […]

Brc1ccc2c(-c3csc(-c4c[nH]c5c(Br)cccc45)n3)c[nH]c2c1 [Compound 32-134D, 4-(6-bromo-1H-indol-3-yl)-2-(7-bromo-1H-indol-3-yl)thiazole]
pIC50 [1]: 5.60 | hypoxia-increased ANGPT2 and VEPTP mRNA expression [2]: inhibited | hypoxia-induced VEGF and ANGPTL4 mRNA expression [2]: effectively inhibited | vascular hyperpermeability (Evans blue leakage) [3]: effectively inhibited; also recorded: significant decrease
